According to the Deep4Chem optical property database:

Assay: photoluminescence quantum yield (fraction); solvent given as SMILES

For `CCCCCCOc1ccc(N(c2ccc(OCCCCCC)cc2)c2ccc(-c3sc(-c4ccc(N(c5ccc(OCCCCCC)cc5)c5ccc(OCCCCCC)cc5)cc4)c4nc(CC)c(CC)nc34)cc2)cc1`, the photoluminescence quantum yield (in CN(C)C=O) was 0.0205 and the photoluminescence quantum yield (in ClC(Cl)Cl) was 0.0225.

Compound `F[Si](c1ccccc1)(c1ccccc1)c1cccc2ccccc12` has a photoluminescence quantum yield (in C1CCOC1) of 0.14.

Work on `c1ccc(-n2cccc2)cc1` yielded a photoluminescence quantum yield (in CC#N) of 0.17 and a photoluminescence quantum yield (in CCCCCC) of 0.24.

`Cc1ccc(C(=O)/N=c2\oc3cccc4c5c(-c6ccccc6)oc6cccc(c(c2-c2ccccc2)c34)c65)cc1` gave a photoluminescence quantum yield (in ClC(Cl)Cl) of 0.17.

Compound `CC1(C)c2ccccc2N(c2ccc(C(=CC#N)c3ccc(N4c5ccccc5C(C)(C)c5ccccc54)cc3)cc2)c2ccccc21` has a photoluminescence quantum yield (in Cc1ccccc1) of 0.313.

Work on `C[C@@]12SC(Cl)=CC1=c1nc(-c3ccc(Cl)cc3)[nH]c1=C1C=C(Cl)S[C@]12C` yielded a photoluminescence quantum yield (in CC#N) of 0.009.

With `Cc1nnc(-c2ccc(-n3c4ccccc4c4ccccc43)cc2)o1` the photoluminescence quantum yield (in Cc1ccccc1) was 0.55.

For `Cc1ccc2cc3cc(C)ncc3cc2c1`, the photoluminescence quantum yield (in CCO) was 0.48.

In the case of `COc1ccc(-c2nc(C)cc(-c3ccc(-n4c5ccccc5c5ccccc54)cc3)n2)cc1`, the photoluminescence quantum yield (in C1CCOC1) was 0.47, the photoluminescence quantum yield (in CN(C)C=O) was 0.68 and the photoluminescence quantum yield (in Cc1ccccc1) was 0.46. For the same compound, the photoluminescence quantum yield (in ClC(Cl)Cl) was 0.65.

For `Cc1ccc2c(c1)C(C)(C)c1cc(C)ccc1N2c1ccc2c(c1)C(C)(C)c1cc(N3c4ccc(C)cc4C(C)(C)c4cc(C)ccc43)ccc1S2(=O)=O`, the photoluminescence quantum yield (in O=P(c1ccccc1)(c1ccccc1)c1ccccc1Oc1ccccc1P(=O)(c1ccccc1)c1ccccc1) was 0.73.

`CCN1c2ccc(C3=CC(c4ccccc4)=[O+][B-](F)(F)O3)cc2Sc2cc(C3=CC(c4ccccc4)=[O+][B-](F)(F)O3)ccc21` showed a photoluminescence quantum yield (in ClCCl) of 0.46.

With `N#Cc1ccc(N(c2ccc(C#N)cc2)c2ccc3c4cccc5c(N(c6ccc(C#N)cc6)c6ccc(C#N)cc6)ccc(c6cccc2c63)c54)cc1` the photoluminescence quantum yield (in ClCCl) was 0.91.

With `CC1=C(C#Cc2ccc([Si](c3ccccc3)(c3ccccc3)c3ccccc3)cc2)C(C)=[N+]2C1=C(c1ccccc1)c1c(C)c(C#Cc3ccc([Si](c4ccccc4)(c4ccccc4)c4ccccc4)cc3)c(C)n1[B-]2(F)F` the photoluminescence quantum yield (in ClCCl) was 0.15.

`CC(=O)[B-]1(C(C)=O)OC(c2ccc3ccccc3c2)=CC(c2ccc3ccccc3c2)=[O+]1` showed a photoluminescence quantum yield (in CC#N) of 0.56 and a photoluminescence quantum yield (in ClC(Cl)(Cl)Cl) of 0.61.

Compound `COc1cc(OC)cc(C2=C3C(C)=C(I)C(C)=[N+]3[B-](F)(F)n3c(/C=C/c4c[nH]c5ccccc45)c(I)c(C)c32)c1` has a photoluminescence quantum yield (in C1CCOC1) of 0.2, a photoluminescence quantum yield (in CS(C)=O) of 0.17 and a photoluminescence quantum yield (in ClCCl) of 0.19.

`Cc1ccc(OCc2cc(=O)oc3c2ccc2ccccc23)cc1` showed a photoluminescence quantum yield (in C1CCOC1) of 0.0561, a photoluminescence quantum yield (in C1COCCO1) of 0.0665 and a photoluminescence quantum yield (in CC#N) of 0.0506. The photoluminescence quantum yield (in CC(C)=O) was 0.0465, the photoluminescence quantum yield (in CCCCO) was 0.0333 and the photoluminescence quantum yield (in CCCO) was 0.0312. The photoluminescence quantum yield (in CCO) was 0.028, the photoluminescence quantum yield (in CCOC(C)=O) was 0.0471 and the photoluminescence quantum yield (in CN(C)C=O) was 0.0576. It also gave a photoluminescence quantum yield (in CO) of 0.0265, a photoluminescence quantum yield (in Cc1ccccc1) of 0.0798 and a photoluminescence quantum yield (in ClCCl) of 0.0584.

In the case of `COc1ccc(N(c2ccc(OC)cc2)c2cc(N(c3ccc(OC)cc3)c3ccc(OC)cc3)c3ccc4cc(C(C)(C)C)cc5ccc2c3c54)cc1`, the photoluminescence quantum yield (in ClCCl) was 0.6.

For `COc1ccc(-c2cc3ccccc3p2-c2ccccc2)cc1` (configuration not stated), the photoluminescence quantum yield (in C1CCOC1) was 0.09.

`CCCCN1C(=O)c2ccc3c4ccc5c6c(cc(-c7ccc(C(=C(c8ccccc8)c8ccccc8)c8ccccc8)cc7)c(c7ccc(c2c37)C1=O)c64)C(=O)N(CCCC)C5=O` showed a photoluminescence quantum yield (in ClCCl) of 0.022.

Work on `CCN(CC)c1ccc2cc(-c3csc(N)c3C#N)c(=O)oc2c1` yielded a photoluminescence quantum yield (in C1CCOC1) of 0.62, a photoluminescence quantum yield (in CO) of 0.02 and a photoluminescence quantum yield (in CS(C)=O) of 0.04. For the same compound, the photoluminescence quantum yield (in Cc1ccccc1) was 0.74 and the photoluminescence quantum yield (in ClCCl) was 0.6.

For `O=C(O)CCCc1cc(C#Cc2ccccc2)c2ccc3c(C#Cc4ccccc4)cc(C#Cc4ccccc4)c4ccc1c2c34`, the photoluminescence quantum yield (in CS(C)=O) was 0.72 and the photoluminescence quantum yield (in ClC(Cl)(Cl)Cl) was 0.56.

For `C[C@]12SC(=O)C=C1c1nc(-c3ccccc3O)[nH]c1C1=CC(=O)S[C@@]12C`, the photoluminescence quantum yield (in CC#N) was 0.01.

In the case of `COc1ccc(C(=Cc2ccc(/C=C/c3ccc(C#N)cc3)cc2)c2ccc(OC)cc2)cc1`, the photoluminescence quantum yield (in C1CCOC1) was 0.03.

Compound `CC(C)(C)NC(=O)c1cc2ccccc2c2ccc3c4ccccc4c4ccccc4c3c12` has a photoluminescence quantum yield (in ClCCl) of 0.06.

In the case of `CN(C)c1ccc2c(C(=O)NCc3ccccc3)cc(C(=O)[O-])nc2c1`, the photoluminescence quantum yield (in CCO) was 0.013.

For `Cc1c(COC(=O)c2ccc(I)cc2)n2c(OCC(=O)c3ccc(I)cc3)c(C)c(=O)n2c1=O`, the photoluminescence quantum yield (in CCO) was 0.842.

Work on `O=[N+]([O-])c1ccc(F)cc1C1CC(c2cccc3ccccc23)=NN1c1ccccc1` (configuration not stated) yielded a photoluminescence quantum yield (in C1CCCCC1) of 0.24, a photoluminescence quantum yield (in C1CCOC1) of 0.3 and a photoluminescence quantum yield (in C1COCCO1) of 0.46. For the same compound, the photoluminescence quantum yield (in CC#N) was 0.2, the photoluminescence quantum yield (in CC(C)O) was 0.19 and the photoluminescence quantum yield (in CCOC(C)=O) was 0.15. The photoluminescence quantum yield (in CCOCC) was 0.2, the photoluminescence quantum yield (in CO) was 0.14 and the photoluminescence quantum yield (in Cc1ccccc1) was 0.22. The photoluminescence quantum yield (in ClC(Cl)Cl) was 0.12 and the photoluminescence quantum yield (in O) was 0.12.

`Cc1ccc(/C=C/C(F)(F)F)c(N)c1` gave a photoluminescence quantum yield (in C1CCOC1) of 0.62.
